ChEMBL document CHEMBL1138991, “(+)-12alpha-Hydroxysophocarpine, a new quinolizidine alkaloid and related anti-HBV alkaloids from Sophora flavescens” (2006)
Calls of active or inactive are those of the source. No cut-off for these calls is given here.

Tests used:
Hepatitis B virus [1] = test: Inhibition of HBsAg release against HBV in HepG2 2.2.15 cell line at 0.2 umol/mL; type: functional; design: scale not given: the % may be the effect or the level left
Hepatitis B virus [2] = test: Inhibition of HBsAg release against HBV in HepG2 2.2.15 cell line at 0.1 umol/mL; type: functional; design: scale not given: the % may be the effect or the level left
Hepatitis B virus [3] = test: Inhibition of HBeAg release against HBV in HepG2 2.2.15 cell line at 0.2 umol/mL; type: functional; design: scale not given: the % may be the effect or the level left
Hepatitis B virus [4] = test: Inhibition of HBeAg release against HBV in HepG2 2.2.15 cell line at 0.1 umol/mL; type: functional; design: scale not given: the % may be the effect or the level left
HepG2 [5] = test: Cytotoxicity against HepG2 2.2.15 cell line at 0.4 umol/mL by MTT assay; type: functional, Homo sapiens
Hepatitis B virus [6] = test: Inhibition of HBsAg release against HBV in HepG2 2.2.15 cell line at 0.8 umol/mL; type: functional; design: scale not given: the % may be the effect or the level left
Hepatitis B virus [7] = test: Inhibition of HBsAg release against HBV in HepG2 2.2.15 cell line at 0.4 umol/mL; type: functional; design: scale not given: the % may be the effect or the level left
Hepatitis B virus [8] = test: Inhibition of HBeAg release against HBV in HepG2 2.2.15 cell line at 0.8 umol/mL; type: functional; design: scale not given: the % may be the effect or the level left
Hepatitis B virus [9] = test: Inhibition of HBeAg release against HBV in HepG2 2.2.15 cell line at 0.4 umol/mL; type: functional; design: scale not given: the % may be the effect or the level left
HepG2 [10] = test: Cytotoxicity against HepG2 2.2.15 cell line at 1.6 umol/mL by MTT assay; type: functional, cell-based; details: Homo sapiens
HepG2 [11] = test: Cytotoxicity against HepG2 2.2.15 cell line at 0.8 umol/mL by MTT assay; type: functional, cell-based; details: Homo sapiens

## O=C1C=CC[C@@H]2[C@H]3CCC[N+]4([O-])CCC[C@@H](CN12)[C@@H]34 (some centres undefined) [OXYSOPHOCARPINE]
Hepatitis B virus [1]
  Activity: 48.3%
Hepatitis B virus [2]
  Activity: 39.9%
Hepatitis B virus [3]
  Activity: 24.6%
Hepatitis B virus [4]
  Activity: 22.4%
HepG2 [5]
  Activity: >=25%

## O=C1C=CC[C@@H]2[C@H]3CCCN4CCC[C@@H](CN12)[C@@H]34 [SOPHOCARPINE]
Hepatitis B virus [1]
  Activity: 57.2%
Hepatitis B virus [2]
  Activity: 21.6%
Hepatitis B virus [3]
  Activity: 34.6%
Hepatitis B virus [4]
  Activity: 31.4%
HepG2 [5]
  Activity: >=25%

## O=C1C=CC[C@@H]2[C@H]3CCCN4CCC[C@H](CN12)[C@@H]34
Hepatitis B virus [6]
  Activity: 79.3%
Hepatitis B virus [7]
  Activity: 78.2%
Hepatitis B virus [8]
  Activity: 27.6%
Hepatitis B virus [9]
  Activity: 22.4%
Hepatitis B virus [1]
  Activity: 63.4%
Hepatitis B virus [2]
  Activity: 17.9%
Hepatitis B virus [3]
  Activity: 6.8%
Hepatitis B virus [4]
  Activity: 0%
HepG2 [10]
  Activity: Active

## O=C1CC=C[C@@H]2[C@H]3CCCN4CCC[C@@H](CN12)[C@@H]34
Hepatitis B virus [1]
  Activity: 52.6%
Hepatitis B virus [2]
  Activity: 25.1%
Hepatitis B virus [3]
  Activity: 25.4%
Hepatitis B virus [4]
  Activity: 22.6%
HepG2 [5]
  Activity: >=25%

## O=C1CCC[C@@H]2[C@H]3CCCN4CCC[C@@H](CN12)[C@H]34
Hepatitis B virus [1]
  Activity: 27.7%
Hepatitis B virus [2]
  Activity: 25.1%
Hepatitis B virus [3]
  Activity: 10.8%
Hepatitis B virus [4]
  Activity: 9.6%
HepG2 [5]
  Activity: >=25%

## O=C1CCC[C@@H]2[C@H]3CCCN4CCC[C@@H](CN12)[C@@H]34 [MATRINE]
Hepatitis B virus [1]
  Activity: 30.9%
Hepatitis B virus [2]
  Activity: 8.9%
Hepatitis B virus [3]
  Activity: 2.7%
Hepatitis B virus [4]
  Activity: 0%
HepG2 [5]
  Activity: >=25%

## O=C1CCC[C@@H]2[C@H]3C[C@H](O)CN4CCC[C@@H](CN12)[C@@H]34
Hepatitis B virus [1]
  Activity: 31.6%
Hepatitis B virus [2]
  Activity: 18.1%
Hepatitis B virus [3]
  Activity: 19.5%
Hepatitis B virus [4]
  Activity: 13.3%
HepG2 [5]
  Activity: >=25%

## O=C1C=C[C@H](O)[C@@H]2[C@H]3CCCN4CCC[C@@H](CN12)[C@@H]34
Hepatitis B virus [1]
  Activity: 40.8%
Hepatitis B virus [2]
  Activity: 28%
Hepatitis B virus [3]
  Activity: 4.6%
Hepatitis B virus [4]
  Activity: 0%
HepG2 [5]
  Activity: >=25%

## O=c1cccc2n1C[C@H]1C[C@H]2CN2CCCC[C@H]12
Hepatitis B virus [7]
  Activity: 33.1%
Hepatitis B virus [9]
  Activity: 0%
Hepatitis B virus [1]
  Activity: 19.8%
Hepatitis B virus [3]
  Activity: 0%
HepG2 [11]
  Activity: Active

## O=C1C=CC[C@@H]2[C@H]3C[C@H](O)CN4CCC[C@@H](CN12)[C@@H]34
Hepatitis B virus [1]
  Activity: 24.5%
Hepatitis B virus [2]
  Activity: 0%
Hepatitis B virus [3]
  Activity: 5.7%
Hepatitis B virus [4]
  Activity: 0%
HepG2 [5]
  Activity: >=25%

## O=C1CCC[C@@H]2[C@H]3CCC[N+]4([O-])CCC[C@@H](CN12)[C@@H]34 (some centres undefined) [OXYMATRINE]
Hepatitis B virus [1]
  Activity: 39.7%
Hepatitis B virus [2]
  Activity: 35.3%
Hepatitis B virus [3]
  Activity: 17.1%
Hepatitis B virus [4]
  Activity: 15.8%
HepG2 [5]
  Activity: >=25%
